Test results taken from patent US20230270731A1, “THERAPEUTIC COMPOUNDS AND COMPOSITIONS” (eXIthera Pharmaceuticals, Inc., priority 2019, published 2023).
Read-outs that look alike come from different tables or passages of the source.

What was measured:
[1] = Compatibility with sterilization filters; assay type: physicochemical
Protocol: The feasibility of aseptic processing was evaluated and three different filter materials were tested for compatibility with the reconstituted Compound 1 formulation.
Filter compatibility of the reconstituted Compound 1 drug product was tested with different filter material (Table 17) composed of polyethersulfone (PES), nylon, and polyvinylidene fluoride (PVDF). For this a volume of Vfilter pass=10 mL was passed through the respective filter and the first as well as the last 10 vol % of the filtered volume were assayed for recovery of Compound 1 (Table 12).
The average values of % recovery are relative to the reconstituted drug product that has not been in contact with the tested materials.

[2] = Reconstitution and reconstitution stability of the lyophilized Compound 1 drug product; assay type: physicochemical; conditions: reconstituted drug product
Protocol: The lyophilized Compound 1 drug product was subjected to testing of reconstitution and to stability testing for 6 h after reconstituted with DI water VDIwater=5 mL.
The lyophilization cake readily reconstituted within 10-20 s. The solution during reconstitution appeared quite foamy and contained many bubbles, which cleared within approximately 2 min addition of the reconstitution solution. Residual micro-bubbles on the container wall can be removed by vortexing (2 s) or sonication (2 s). […] The pH of the reconstituted solution was measured with pH=6.81; the osmolality was determined to φ=295 mOsm/kg. The reconstituted solution was practically free of particulates as determined by liquid particle counting (LPC, HIAC: Vsample=5 mL, nruns=4, 1st run discarded, fdilution=10, Vnominal, container=2 mL) with a cumulative count of 3200 particles at a size of 10 μm and 667 particles at a size of 25 μm.
The recovery of Compound 1 was monitored for 24 h after reconstitution to test for the in-use stability of the reconstituted solution (Table 9)

[3] = Citrate and PBS vehicle formulations: pH, osmolality, concentration and recovery (HPLC); assay type: physicochemical
Protocol: Two additional vehicles: sodium citrate (50 mM) and PBS (commercial) were formulated at different concentrations (Table 5, Table 6). Both vehicles at any concentration were compounded using the appropriate final sodium hydroxide concentration (0.1 M NaOH stock solution).
The PBS vehicle was compounded to two different pH-values while the citrate vehicle was compounded at different concentrations at the same target pH and tested for its stability over the course of 24 h (rt, exclusion from light). To evaluate the potential occurrence of particles from precipitation, a filtration step (0.2 μm micro centrifugal filters) was included at each time point.
In case of Sample #27 the amount of HCl (aq.) (0.1 M stock) added instead of the NaOH-solution was mixed with the 10×PBS buffer and added to the aqueous solution of Compound 1 in a single step.

[4] = tested on: blood coagulation components (Cardiopulmonary Bypass circuit); assay type: in vivo
Protocol: The following parameters and endpoints were evaluated in this study: mortality, body weight, physical, clinical pathology parameters (hematology and coagulation), coagulation time, and bioanalytical parameters.
The vehicle and test article were administered via intravenous (IV) infusion once on Day 1 for 135 minutes (initiated 30 minutes prior to starting the Cardiopulmonary Bypass (CPB) and continuing for 105 minutes of CPB). Group 2 animals received a […] IV bolus dose immediately prior to the start of IV infusion. Group 3, 4, and 5 animals received a 10 mg/kg IV bolus dose prior to the start of the IV infusion; with the CPB machine primed with test article at 10 μg/mL.
Infusion of the Compound 1 was started 30 minutes prior to the animal being placed on the CPB pump. The CPB pump was primed with 0.9% saline.
Venous and arterial sheaths were flushed with the Compound 1 at a concentration of 10 μg/mL. An IV bolus dose of the test article was administered immediately prior to the start of the infusion. Infusion of Compound 1 was started 30 minutes prior to the animal being placed on the CPB pump. The CPB […] was primed with 10 μg/mL of the Compound 1 prior to initiation of the CPB pump.
An IV bolus dose of the Compound 1 was administered immediately prior to the start of the infusion. Infusion of Compound 1 was started 30 minutes prior to the animal being placed on the CPB pump.

Question: With `C[C@@H](NC(=O)N1C(=O)[C@H](Cc2ccnc(N)c2)[C@H]1C(=O)O)C1CCCCC1` [Compound 1, (2S,3R)-3-[(2-aminopyridin-4-yl)methyl]-1-{[(1R)-1-cyclohexylethyl]carbamoyl}-4-oxoazetidine-2-carboxylic acid] as the molecule, how does the “Avg. c(Compound 1, FB, Obs.)” value ([1]; Nylon filter, first 10% of 10 mL) read?
Answer: The value was 0.94 mg/mL.

Question: And the “Avg. c(Compound 1, FB, Obs.)” value ([1]; Nylon filter, last 10% of 10 mL)?
Answer: The value was 0.95 mg/mL.

Question: What about the “Avg. c(Compound 1, FB, Obs.)” value ([1]; PES filter, first 10% of 10 mL) of the same molecule?
Answer: Its value is 0.94 mg/mL.

Question: And the “Avg. c(Compound 1, FB, Obs.)” value ([1]; PES filter, last 10% of 10 mL)?
Answer: The value was 0.95 mg/mL.

Question: What about the “Avg. c(Compound 1, FB, Obs.)” value ([1]; PVDF filter, first 10% of 10 mL) of the same molecule?
Answer: Its value is 0.95 mg/mL.

Question: What about the “Avg. c(Compound 1, FB, Obs.)” value ([1]; PVDF filter, last 10% of 10 mL) of the same molecule?
Answer: The value was 0.95 mg/mL.

Question: What about the “Avg. c(Compound 1, FB, Obs.)” value ([1]; Sample Soln. (pre-filtration)) of the same molecule?
Answer: Its value is 0.95 mg/mL.

Question: What about the back-pressure during filtration ([1]; any of the tested filters) of the same molecule?
Answer: The back-pressure during filtration was “No increase”.

Question: What about the “Avg. c(Compound 1, FB, Obs.)” value ([2]; t0) of the same molecule?
Answer: Its value is 9.65 mg/mL.

Question: And the “pH (Meas.)” value ([2]; t0)?
Answer: Its value is 6.80.

Question: What about the “Avg. c(Compound 1, FB, Obs.)” value ([2]; t = 1 h) of the same molecule?
Answer: The value was 9.47 mg/mL.

Question: What about the “pH (Meas.)” value ([2]; t = 1 h) of the same molecule?
Answer: The value was 6.79.

Question: What about the “Avg. c(Compound 1, FB, Obs.)” value ([2]; t = 2 h) of the same molecule?
Answer: The value was 9.20 mg/mL.

Question: And the “pH (Meas.)” value ([2]; t = 2 h)?
Answer: Its value is 6.80.

Question: And the “Avg. c(Compound 1, FB, Obs.)” value ([2]; t = 4 h)?
Answer: The value was 9.19 mg/mL.

Question: What about the “pH (Meas.)” value ([2]; t = 4 h) of the same molecule?
Answer: Its value is 6.79.

Question: And the “Avg. c(Compound 1, FB, Obs.)” value ([2]; t = 6 h)?
Answer: Its value is 9.28 mg/mL.

Question: What about the “pH (Meas.)” value ([2]; t = 6 h) of the same molecule?
Answer: The value was 6.79.

Question: And the “Avg. c(Compound 1, FB, Obs.)” value ([2]; t = 24 h)?
Answer: The value was 8.99 mg/mL.

Question: And the “pH (Meas.)” value ([2]; t = 24 h)?
Answer: The value was 6.85.

Question: What about the “Stability of Compound 1 in citrate buffer” value ([3]; 24 h, ambient temperature) of the same molecule?
Answer: Its value is “confirmed”.

Question: What about the “Precipitation of Compound 1” value ([3]; citrate buffer, within 24 h) of the same molecule?
Answer: The value was “not observed”.

Question: And the “relation between plasma concentration and aPTT” value ([4]; FIG. 12)?
Answer: The value was “correlation”.

Question: What about the aPTT ([4]; all groups, following cessation of infusion and CPB) of the same molecule?
Answer: The aPTT was “trended towards baseline values, but remained moderately prolonged”.

Question: What about the “prolongations in aPTT” value ([4]; course during infusion and CPB) of the same molecule?
Answer: Its value is “persisted throughout Compound 1 infusion and CPB”.

Question: What about the morbidity or mortality ([4]; dog, in vivo) of the same molecule?
Answer: Its morbidity or mortality is “not associated with any increases in morbidity or mortality”.

Question: And the survival ([4]; dog, in vivo)?
Answer: The survival was “All animals survived”.

Question: And the aPTT ([4]; during Compound 1 infusion and prior to CPB, all animals)?
Answer: The aPTT was “moderately to markedly prolonged”.

Question: What about the “prevention of activation of blood coagulation in components of cardiopulmonary bypass” value ([4]; hound CPB model) of the same molecule?
Answer: The value was “successful in preventing the activation of blood coagulation”.

Question: What about the “selectivity of anticoagulant effects” value ([4]; hound CPB model, coagulation parameters) of the same molecule?
Answer: Its value is “selective to inhibition of activated partial thromboplastin time (aPTT)”.

Question: And the “pressure gradient across the membrane oxygenator” value ([4]; multiple doses, IV infusion, CPB run)?
Answer: Its value is “stayed consistent through the entire run”.
